Measured values: publication PMC10917278, “Structural insights into the modulation Of SOD1 aggregation By a fungal metabolite Phialomustin-B: Therapeutic potential in ALS” (PLOS ONE, 2024)

Biological target: T1, SOD1^WT (Homo sapiens, UniProt P00441)
T1 construct: The full-length constructs of SOD1-wild type (aa: 1–145); His-tag (cleaved yes); made in house; host or cells: E. coli BL21 DE3
Test: Analytical size-exclusion chromatography (SEC) aggregation assay, SOD1^WT
Type: biochemical
Conditions: PB 30X, reducing conditions
Procedure: Fig 6 Aggregation studies of metallated and reduced SOD1^WT and SOD1^A4V on treatment with PB. ThT fluorescence was monitored during the co-incubation of metallated SOD1^WT (50 μM) (a) or SOD1^A4V (50 μM) (b) with PB at 1:30 molar ratio at 37 °C with continuous shaking, under reduced conditions. The values were normalized to the maximal ThT intensity elicited by SOD1^WT or SOD1^A4V and fitted to a Boltzmann sigmoidal equation. The control and PB-treated species were compared to analyse the effects of PB on the aggregation of SOD1^WT and SOD1^A4V. Error bars indicate the standard deviation. Analytical SEC of metallated SOD1^WT (50 μM) (c) and SOD1^A4V (50 μM) (d) with PB were analyzed under reducing conditions before and after 24 hrs and 48 hrs incubation at 37 °C. The first peak eluting at the volume was denoted as oligomerized SOD1^WT/SOD1^A4V (L). The second, third, and fourth peaks were calculated as trimer (T), dimer (D), and monomer (M) species of SOD1^WT/SOD1^A4V running at 14.5 ml, 15.7 ml, and 16.5 ml, respectively. […] The monomer (M), dimer (D), trimer (T), and large aggregate (L) species are shown as green, purple, red, and black dotted lines, respectively. All the experiments were performed for n = 3 biological replicates. […]
Fig 7 Aggregation studies of de-metallated and reduced SOD1^WT and SOD1^A4V on treatment with PB. ThT fluorescence was monitored during the co-incubation of de-metallated SOD1^WT (50 μM) (a) or SOD1^A4V (50 μM) (b) with PB at 1:30 molar ratio at 37 °C with continuous shaking, under reduced conditions. […] Analytical SEC of de-metallated SOD1^WT (50 μM) (a) and SOD1^A4V (50 μM) (b) with PB were analysed under reducing conditions before and after 24 hrs and 48 hrs incubation at 37 °C. […] The second, third, and fourth peaks were calculated as trimer (T), dimer (D), and monomer (M) species of SOD1^WT/SOD1^A4V running at 14.5 ml, 15.7 ml, and 16.5 ml, respectively. […]

[1] = Metallated SOD1^WT 50 μM, 24 and 48 hrs at 37 °C

T1 sequence (P00441 whole entry): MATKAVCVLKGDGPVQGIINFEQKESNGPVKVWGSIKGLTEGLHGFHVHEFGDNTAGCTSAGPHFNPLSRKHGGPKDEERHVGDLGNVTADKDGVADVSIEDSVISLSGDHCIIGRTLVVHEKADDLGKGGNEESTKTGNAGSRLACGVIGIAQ

SMILES: CCCC[C@H](C)/C=C(C)/C=C/C(=O)O [PB, (S, 2E, 4E)-4,6-dimethyldeca-2,4-dienoic acid]
- formation of trimer species (SEC) (De-metallated (EDTA) SOD1^WT 50 μM, 48hrs): insignificantly reduced compared to the control
- formation of higher aggregates (SEC, eluting at 9.2 ml) [1]: may induce the formation of higher aggregates in a time-dependent manner
- toxic trimer population (SEC) [1]: time-dependent alleviation of toxic trimer population
